System: porcine model of endotoxin shock
Assay: porcine model of endotoxin shock
Format: in vivo, landrace pigs
Description: 20 kg landrace pigs were anesthetized and catheterized. After baseline measurements 8 pigs received 200 μg/kg levosimendan as a 10 minute bolus followed by an infusion of 200 μg/kg/hour. 9 animals served as controls.
In the second phase of the experiment the animals were given an infusion of endotoxin (from E. Coli bacteria) 30 minutes after the start of the bolus dose of levosimendan. The endotoxin infusion was maintained for 3 hours and the levosimendan infusion was maintained throughout the experiment until 5 hours after onset of endoxemia. Comparison between the two groups was made with ANOVA.
The changes in the cardiac index, splanchnic (portal) blood flow index, portal venous blood lactate and pulmonary vascular resistance are shown in FIGS. 1-4. In the Figures, (−0.5 h) means the start of levosimendan bolus and (0 h) the start of endotoxin infusion.

[1] = porcine model of endotoxin shock, 200 μg/kg 10 minute bolus followed by infusion of 200 μg/kg/hour, E. Coli endotoxin infusion 3 hours

SMILES: CC1CC(=O)NN=C1c1ccc(NN=C(C#N)C#N)cc1 (single isomer, unassigned; (-)) [levosimendan, (−)-[[4-(1,4,5,6-tetrahydro-4-methyl-6-oxo-3-pyridazinyl)phenyl]hydrazono]propanedinitrile]
- survival (8 levosimendan treated pigs, until 5 hours after onset of endotoxemia): All levosimendan treated animals survived
- endotoxin-induced decreases in cardiac output [1]: counteracts
- endotoxin-induced splanchnic hyperperfusion [1]: counteracts endotoxin-induced splanchnic hyperperfusion
- endotoxin-induced circulatory disorders (cardiac index, portal blood flow index, portal venous blood lactate, pulmonary vascular resistance; FIGS. 1-4) (vs control, ANOVA, until 5 hours after onset of endotoxemia): can significantly counteract endotoxin-induced circulatory disorders
